The nature of data set [1]: UV curing experiments: passes under Hg lamp to tack-free / thumb-twist cure. As to conditions: approx. 16 m/min belt speed, 0.20 g amine in 4.0 g resin with 1% 2-ITX and 4% BP. The protocol:
The following example illustrates the high curing speed of co-initiators which contain the compound of Formula I and the ancillary amine. For comparison, the commercially available amine co-initiators SpeedCure EDB (Lambson Limited) and diffusion-hindered polymeric amine SpeedCure 7040 (Lambson Limited) were also tested. Additionally, the pure amines AC1-AC5 were tested alongside the mixtures provided by this invention, of which the mixtures AM1-AM6 are representative examples.
The amine co-initiators or co-initiator mixtures (0.20 g) were added to a resin mixture (4.0 g) containing 1% w/w SpeedCure 2-ITX (Lambson Limited) and 4% w/w SpeedCure BP (Lambson Limited) in 70:30 ethoxylated bisphenol A dimethacrylate (EO/phenol 10):trimethylolpropane triacrylate with stirring at 15-20° C. until all solid material had dissolved.
Formulations were cured at 6 and 24 μm film thicknesses under Hg lamp using a Dymax curing instrument with approx. 16 m/min belt speed. The number of passes under the lamp required to give a ‘tack-free’ (TF) coating (as determined when the surface of the coating no longer feels sticky when lightly touched) or full cure as determined by the ‘thumb-twist’ test (TT) (i.e. until no visible mark is made when a thumb is pressed down firmly onto the coating with a twisting motion) are given in Table 3.

A short description of data set [2]: Solubility of amines and amine mixtures in acrylate resins. As to conditions: for Solubility (% w/w at ~15-20° C.): stays in solution at least 7 days, above 10% w/w not tested; for Dissolution of the solid material: at 1% w/w in the acrylate resins. The format is physicochemical. The method, then: This example illustrates the improved solubility of the co-initiator mixtures compared to single component amine co-initiator compositions, illustrating the benefit of providing a composition comprising both the compound of Formula I and the ancillary amine. For comparison, the solubility of amine mixtures as provided by this invention, of which mixtures AM1-AM6 are representative examples, were tested alongside single component formulations comprising only the amines AC1-AC5.
Mixtures of amine synergists were prepared using one of the methods described above.
The solid amines AC1-AC5 or mixtures of amines AM1-AM6 were added portion-wise in 1% w/w portions to stirred 5.0 g samples of the following acrylate resins and the samples were stirred at 15-20° C. until all solid material was completely dissolved: HDDA (1,6-hexanediol diacrylate), TMPTA (trimethylolpropane triacrylate), TPGDA (tripropyleneglycol diacrylate). At the concentrations given below (Table 2a-2k) all solids remained in solution for at least 7 days at 15-20° C. unless otherwise stated. In cases where the solids began to crystallise out of solution within this time the mixtures were warmed to approx. 40° C. to re-dissolve the solids and the concentrations were adjusted to the given values by the addition of extra resin, whereupon the solids remained dissolved at the adjusted concentration for at least 7 days at 15-20° C. Solubility above 10% w/w was not tested in any case. The weight % is based on the total weight of the mixture.

[3] abbreviates: in HDDA (1,6-hexanediol diacrylate).
The mark [4] stands for this setting: in TMPTA (trimethylolpropane triacrylate).
Where [5] appears, read: in TPGDA (tripropyleneglycol diacrylate).

This note sets out measurements from US12146010B2, “Amine co-initiator mixture” (Arkema UK Limited, priority 2019, dated 2024).

Consider `CCC(COCC(CC)(COC(=O)c1ccc(N(C)C)cc1)COC(=O)c1ccc(N(C)C)cc1)(COC(=O)c1ccc(N(C)C)cc1)COC(=O)c1ccc(N(C)C)cc1` [AC1], for which the “No. of Passes Required, TF (tack-free)” value in data set [1] (6 μm film) and in data set [1] (24 μm film) was 1 passes each time. Further, the “No. of Passes Required, TT (thumb-twist, full cure)” value (“No. of Passes Required, TT” for short) in data set [1] (6 μm film) is 5 passes; in data set [1] (24 μm film) it was 2 passes. Further, the “Solubility (% w/w at ~15-20° C.)” value came to 5 % w/w in data set [2] (setting [3]), 4 % w/w in data set [2] (setting [4]) and 3 % w/w in data set [2] (setting [5]).
On to `CCC(COC(=O)c1ccc(N(C)C)cc1)(COC(=O)c1ccc(N(C)C)cc1)COC(=O)c1ccc(N(C)C)cc1` [AC3], for which the “Solubility (% w/w at ~15-20° C.)” value in data set [2] (setting [3]), in data set [2] (setting [4]) and in data set [2] (setting [5]) was <2 % w/w in each case. In addition, in data set [2] (initially dissolved at 2% w/w, all three resins), the “Time until solid crystallised out of solution” value was ≤ 24 h.
With `CCC(CO)(COCC(CC)(COC(=O)c1ccc(N(C)C)cc1)COC(=O)c1ccc(N(C)C)cc1)COC(=O)c1ccc(N(C)C)cc1` (stereo not drawn) [AC2], the “No. of Passes Required, TF (tack-free)” value in data set [1] (6 μm film) and in data set [1] (24 μm film) was 1 passes each time. Besides, the results for the “No. of Passes Required, TT” value in data set [1] (6 μm film) and in data set [1] (24 μm film) were 6 passes and 2 passes, respectively. Further, the “Solubility (% w/w at ~15-20° C.)” value in data set [2] (setting [3]), in data set [2] (setting [4]) and in data set [2] (setting [5]) was 10 % w/w throughout.
As to `CN(C)c1ccc(C(=O)OCC(COC(=O)c2ccc(N(C)C)cc2)(COC(=O)c2ccc(N(C)C)cc2)COC(=O)c2ccc(N(C)C)cc2)cc1` [AC4], the “Dissolution of the solid material” value in data set [2] was “would not dissolve”. Also, the “Solubility (% w/w at ~15-20° C.)” value in data set [2] (setting [3]), in data set [2] (setting [4]) and in data set [2] (setting [5]) was <1 % w/w throughout.
As for `CCOC(=O)c1ccc(N(C)C)cc1` [SpeedCure EDB, ethyl 4-(dimethylamino)benzoate, reference compound], in data set [1] (6 μm film), the “No. of Passes Required, TF (tack-free)” value is given as 1 passes and the “No. of Passes Required, TT” value is recorded as 6 passes. Besides, in data set [1] (24 μm film), the “No. of Passes Required, TF (tack-free)” value turned out to be 1 passes and the “No. of Passes Required, TT” value amounted to 2 passes.
Consider `CN(C)c1ccc(C(=O)OCC(COC(=O)c2ccc(N(C)C)cc2)OC(=O)c2ccc(N(C)C)cc2)cc1` [AC5], for which, in data set [2], the “Dissolution of the solid material” value is “would not dissolve”. The “Solubility (% w/w at ~15-20° C.)” value in data set [2] (setting [3]), in data set [2] (setting [4]) and in data set [2] (setting [5]) was <1 % w/w throughout.
